Converted amounts (≈) assume the structure as drawn.

A short description of data set [1]: Equilibrium solubility in fasted state simulated intestinal fluid (FaSSIF). The conditions noted are these: thermodynamic from solid, pH 6.5, 37° C., read-out: equilibrium solubility of crystalline DHM in FaSSIF. The class given is physicochemical.
Data set [2] in a line: Equilibrium solubility in fed state simulated intestinal fluid (FeSSIF). The class given is physicochemical. The note with it: thermodynamic from solid, pH 5.0, 37° C., read-out: equilibrium solubility of crystalline DHM in FeSSIF.
For data set [3] the following is noted: reference [31]; cited from earlier work.

Turning to `O=C1c2c(O)cc(O)cc2O[C@H](c2cc(O)c(O)c(O)c2)[C@H]1O` [DHM, dihydromyricetin], the solubility thermodynamic in data set [1] was roughly 50 µg/mL (≈ 156 µM); in data set [2], roughly 140 µg/mL (≈ 437 µM). For the same compound, the oral bioavailability result in data set [3] was “less than 5%”.

(Values after patent US12343324B2, “Dihydromyricetin hot melt extrusion formulations and methods for forming them” (The Trustees of Princeton University, priority 2018, dated 2025).)
